ChEMBL document CHEMBL5233261, “Recent accomplishments on the synthetic/biological facets of pharmacologically active 1H-1,2,3-triazoles” (Eur J Med Chem, 2021)
pIC50: −log10 of the molar value. In brackets after ≈: the same amount, converted by molar mass.

Legend:
Bacillus cereus = test: Antibacterial activity against Bacillus cereus ATCC 11778 strain assessed as bacterial growth inhibition; type: functional
Aspergillus fumigatus = test: Antifungal activity against Aspergillus fumigatus ATCC 13073 strain assessed as […] growth inhibition; type: functional
Proteus vulgaris = test: Antibacterial activity against Proteus vulgaris ATCC 7829 strain assessed as bacterial growth inhibition; type: functional
Staphylococcus aureus [1] = test: Antibacterial activity against Staphylococcus aureus ATCC 6538P strain assessed as bacterial growth inhibition; type: functional
Candida albicans [2] = test: Antifungal activity against Candida albicans NRRL Y-477 strain assessed as […] growth inhibition; type: functional
Escherichia coli [3] = test: Antibacterial activity against Escherichia coli ATCC 853 strain assessed as bacterial growth inhibition; type: functional
MCF7 [4] = test: Potency index, ratio of Tamoxifen IC50 to test compound IC50 for cytotoxicity against human MCF7 cells by MTT assay; type: functional
MDA-MB-231 [5] = test: Potency index, ratio of Tamoxifen IC50 to test compound IC50 for cytotoxicity against human MDA-MB-231 cells by MTT assay; type: functional
Enterococcus faecalis = test: Antibacterial activity against Enterococcus faecalis ATCC 29212 strain assessed as bacterial growth inhibition incubated for 24 hrs; type: functional
Staphylococcus aureus [6] = test: Antibacterial activity against Staphylococcus aureus ATCC 6535 strain assessed as bacterial growth inhibition incubated for 24 hrs; type: functional
Escherichia coli [7] = test: Antibacterial activity against Escherichia coli ATCC 11229 assessed as bacterial growth inhibition by agar well diffusion assay; type: functional
Listeria = test: Antibacterial activity against Listeria assessed as bacterial growth inhibition by agar well diffusion assay; type: functional
Staphylococcus aureus [8] = test: Antibacterial activity against Staphylococcus aureus ATCC 6538 assessed as bacterial growth inhibition by agar well diffusion assay; type: functional
[9] = system: Mycobacterium tuberculosis; test: Antibacterial activity against Mycobacterium tuberculosis H37Rv ATCC 27294 strain assessed as bacterial growth inhibition by MABA Assay; type: functional
MDA-MB-231 [10] = test: Anticancer activity against human MDA-MB-231 cells assessed as cell growth inhibition by MTT assay; type: functional, cell-based
MCF7 [11] = test: Anticancer activity against human MCF7 cells assessed as cell growth inhibition by MTT assay; type: functional, cell-based
HEK293 = test: Anticancer activity against human HEK293 cells assessed as cell growth inhibition by MTT assay; type: functional
Pseudomonas aeruginosa [12] = test: Antibacterial activity against Pseudomonas aeruginosa ATCC 27853 strain assessed as bacterial growth inhibition incubated for 24 hrs; type: functional
Bacillus subtilis [13] = test: Antibacterial activity against Bacillus subtilis assessed as bacterial growth inhibition; type: functional
Candida albicans [14] = test: Antifungal activity against Candida albicans assessed as […] growth inhibition; type: functional
Aspergillus niger = test: Antifungal activity against Aspergillus niger assessed as […] growth inhibition; type: functional
Pseudomonas aeruginosa [15] = test: Antibacterial activity against Pseudomonas aeruginosa assessed as bacterial growth inhibition; type: functional
[16] = system: Staphylococcus epidermidis; test: Antibacterial activity against Staphylococcus epidermidis assessed as bacterial growth inhibition; type: functional
Escherichia coli [17] = test: Antibacterial activity against Escherichia coli assessed as bacterial growth inhibition; type: functional
[18] = biological target: Enoyl-[acyl-carrier-protein] reductase [NADH] (Mycobacterium tuberculosis) (UniProt P9WGR1); test: Inhibition of Mycobacterium tuberculosis InhA at 50 microM relative to control
Enoyl-[acyl-carrier-protein] reductase [NADH] (Mycobacterium tuberculosis), sequence (P9WGR1 whole entry): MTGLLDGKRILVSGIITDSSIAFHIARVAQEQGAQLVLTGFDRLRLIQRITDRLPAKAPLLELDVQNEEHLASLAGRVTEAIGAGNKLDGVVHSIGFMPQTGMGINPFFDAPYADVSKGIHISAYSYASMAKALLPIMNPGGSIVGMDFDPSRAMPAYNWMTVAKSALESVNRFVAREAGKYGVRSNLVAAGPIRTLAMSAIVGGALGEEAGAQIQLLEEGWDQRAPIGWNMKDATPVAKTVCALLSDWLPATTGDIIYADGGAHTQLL

[19] = system: Mycobacterium tuberculosis; test: Antibacterial activity against Mycobacterium tuberculosis H37Rv strain assessed as bacterial growth inhibition incubated for 7 days by Resazurin Microtiter Assay; type: functional; conditions: 168 h, time 7 day
Escherichia coli [20] = test: Antibacterial activity against Escherichia coli assessed as bacterial growth inhibition incubated for 24 hrs by agar well diffusion assay; type: functional
Staphylococcus aureus [21] = test: Antibacterial activity against Staphylococcus aureus assessed as bacterial growth inhibition incubated for 24 hrs by agar well diffusion assay; type: functional
Bacillus subtilis [22] = test: Antibacterial activity against Bacillus subtilis assessed as bacterial growth inhibition incubated for 24 hrs by agar well diffusion assay; type: functional
HeLa = test: Anticancer activity against human HeLa cells assessed as cell growth inhibition incubated for 48 hrs by SRB assay; type: functional, cell-based
MIA PaCa-2 = test: Anticancer activity against human MIA PaCa-2 cells assessed as cell growth inhibition incubated for 48 hrs by SRB assay; type: functional, cell-based; conditions: MIA PaCa-2, 48 h
MCF7 [23] = test: Anticancer activity against human MCF7 cells assessed as cell growth inhibition incubated for 24 hrs by ELISA assay; type: functional, cell-based; conditions: MCF7, 24 h
MCF7 [24] = test: Anticancer activity against human MCF7 cells assessed as cell growth inhibition incubated for 24 hrs by MTT assay; type: functional, cell-based; conditions: MCF7, 24 h
HT-29 = test: Anticancer activity against human HT-29 cells assessed as cell growth inhibition incubated for 48 hrs by SRB assay; type: functional, cell-based; conditions: HT-29, 48 h
MCF7 [25] = test: Anticancer activity against human MCF7 cells assessed as cell growth inhibition incubated for 48 hrs by SRB assay; type: functional, cell-based; conditions: MCF7, 48 h
A549 = test: Anticancer activity against human A549 cells assessed as cell growth inhibition incubated for 48 hrs by SRB assay; type: functional, cell-based; conditions: A549, 48 h
HCT-116 = test: Anticancer activity against human HCT-116 cells assessed as cell growth inhibition incubated for 48 hrs by SRB assay; type: functional, cell-based; conditions: HCT-116, 48 h
Plasmodium falciparum = test: Antimalarial activity against Plasmodium falciparum 3D7 strain by MSF assay; type: functional, organism-based

## COc1ccccc1-n1cc(COc2ccc(-c3nc(-c4ccccc4)c(-c4ccccc4)n3Cc3cn(-c4ccccc4OC)nn3)cc2)nn1
Bacillus cereus
  MIC: 13.8 µM (≈ 9.46 µg/mL)
Aspergillus fumigatus
  MIC: 13.8 µM (≈ 9.46 µg/mL)
Proteus vulgaris
  MIC: 13.8 µM (≈ 9.46 µg/mL)
Staphylococcus aureus [1]
  MIC: 13.8 µM (≈ 9.46 µg/mL)
Candida albicans [2]
  MIC: 13.8 µM (≈ 9.46 µg/mL)
Escherichia coli [3]
  MIC: 13.8 µM (≈ 9.46 µg/mL)

## Cc1ncc([N+](=O)[O-])n1Cc1cn(CCCCCN2C(=O)C(=O)c3cc(Cl)ccc32)nn1
MCF7 [4]
  Ratio IC50: 2
MDA-MB-231 [5]
  Ratio IC50: 5

## CCOP(=O)(CCn1cc(Cn2cnc3ccccc3c2=O)nn1)OCC
Enterococcus faecalis
  MIC: 0.625 µg/mL (≈ 1.6 µM)

## CCOP(=O)(CCCn1cc(Cn2cnc3ccccc3c2=O)nn1)OCC
Staphylococcus aureus [6]
  MIC: 0.625 µg/mL (≈ 1.54 µM)

## CC(C)c1ccc(-c2cc(-c3ccc(Cl)cc3)nc(OCc3cn(CC(=O)O)nn3)c2C#N)cc1
Escherichia coli [7]
  MIC: 9.6 µg/mL (≈ 19.7 µM)
Listeria
  MIC: 9.6 µg/mL (≈ 19.7 µM)
Staphylococcus aureus [8]
  MIC: 19.2 µg/mL (≈ 39.3 µM)

## COc1ccc2nc(Cl)c(C(=O)NCc3cn(CC(=O)c4ccc(F)cc4)nn3)cc2c1
[9]
  MIC: 1.6 µg/mL (≈ 3.53 µM)

## O=C1C(=O)N(Cc2cn(CC/C(=C(\c3ccccc3)c3ccc(OCCO)cc3)c3ccccc3)nn2)c2c(Br)cc(Br)cc21
MDA-MB-231 [10]
  pIC50: 4.72
MCF7 [11]
  pIC50: 4.50
HEK293
  IC50: >100 µM

## CCOP(=O)(CCCCn1cc(Cn2cnc3ccccc3c2=O)nn1)OCC
Pseudomonas aeruginosa [12]
  MIC: 0.625 µg/mL (≈ 1.49 µM)

## O=C(Cn1cc(-c2ccccc2)nn1)Nc1ccc(F)cc1
Bacillus subtilis [13]
  MIC: 0.201 umol/cm3
Candida albicans [14]
  MIC: 0.201 umol/cm3
Aspergillus niger
  MIC: 0.201 umol/cm3
Pseudomonas aeruginosa [15]
  MIC: 0.201 umol/cm3
[16]
  MIC: 0.201 umol/cm3
Escherichia coli [17]
  MIC: 0.201 umol/cm3

## COc1cc([C@H]2c3cc4c(cc3[C@H](OCc3cn([C@@H]5O[C@H](COC(C)=O)[C@H](OC(C)=O)[C@H](OC(C)=O)[C@H]5OC(C)=O)nn3)[C@@H]3COC(=O)[C@@H]23)OCO4)cc(OC)c1OC
MCF7 [11]
  pIC50: 5.90

## COc1ccc2nc(Cl)c(C(=O)NCc3cn(Cc4ccccc4)nn3)cc2c1
[9]
  MIC: 1.6 µg/mL (≈ 3.92 µM)

## COc1cc(-n2cc(CS(=O)(=O)C3c4ccccc4-c4ccccc43)nn2)cc(OC)c1OC
[18]
  inhibition: 73%

## Cc1cc(=O)oc2cc(OCc3cn(CCCCCCCCn4cc(COc5cc6oc(=O)cc(C)c6cc5Cl)nn4)nn3)c(Cl)cc12
[19]
  MIC: 1.56 µg/mL (≈ 2.25 µM)
Escherichia coli [20]
  inhibition zone (IZ): 14 mm
Staphylococcus aureus [21]
  inhibition zone (IZ): 16 mm
Bacillus subtilis [22]
  inhibition zone (IZ): 19 mm

## COc1ccc2cccc(-c3cn(CCCOC(=O)C4=C(Cl)c5cc(C)c(C)cc5CCC4)nn3)c2c1
HeLa
  pIC50: 5.79
MIA PaCa-2
  pIC50: > 8.00

## COc1ccc(Cn2cc(CNC(=O)c3cc4cc(OC)ccc4nc3Cl)nn2)cc1
[9]
  MIC: 1.6 µg/mL (≈ 3.65 µM)

## COc1cc2ncnc(Nc3ccc(Cn4cc(-c5ccccc5)nn4)cc3)c2cc1OC
MCF7 [23]
  pIC50: 4.68

## COc1ccc2nc(Cl)c(C(=O)NCc3cn(Cc4ccc(C#N)cc4)nn3)cc2c1
[9]
  MIC: 1.6 µg/mL (≈ 3.7 µM)

## CCOC(=O)[C@H]1Cc2c([nH]c3ccccc23)CN1Cc1cn(CCCN2C(=O)C(=O)c3ccccc32)nn1
MCF7 [24]
  pIC50: 4.43

## Cc1ccc(-c2nn(-c3ccccc3)cc2/C=C/C(=O)OCc2cn(-c3ccc([N+](=O)[O-])cc3)nn2)cc1
HT-29
  pIC50: 5.35
MCF7 [25]
  pIC50: 5.75
A549
  pIC50: 5.71
HCT-116
  pIC50: 5.44

## O=C1C(=O)N(CCn2cc(COCCOc3ccc(/C(=C(/CCCl)c4ccccc4)c4ccccc4)cc3)nn2)c2c(Br)cc(Br)cc21
MCF7 [4]
  Ratio IC50: 30

## O=C(CCl)NCCNc1ccnc2cc(Cl)ccc12
Plasmodium falciparum
  pIC50: 7.41
